Test results taken from patent US20260305610A1, “TRIAZOLE COMPOUND, AND PREPARATION METHOD THEREFOR, HERBICIDAL COMPOSITION AND USE THEREOF” (QINGDAO KINGAGROOT CHEMICAL COMPOUND CO., LTD., priority 2023, published 2026).

How the values were obtained:
[1] = tested on: monocotyledonous and dicotyledonous weeds; test: Pre-emergence test experiment (weeds); assay type: in vivo; set-up: key: 9: completely dead; 8: growth control rate is greater than or equal to 90% and less than 100%; 7: growth control rate is greater than or equal to 80% and less than 90%; 6: growth control rate is greater than or equal to 70% and less than 80%; growth control rate is greater than or equal to 50% and less than 70%; 4: growth control rate is greater than or equal to 30% and less than 50%; growth control rate is greater than or equal to 20% and less than 30%; growth control rate is greater than or equal to 10% and less than 20%; growth control rate is less than 10%; 0: no effect; conditions: 30 g a.i./ha
major crops = test: Pre-emergence test experiment (crops); assay type: in vivo; set-up: key: 9: completely dead; 8: growth control rate is greater than or equal to 90% and less than 100%; 7: growth control rate is greater than or equal to 80% and less than 90%; 6: growth control rate is greater than or equal to 70% and less than 80%; growth control rate is greater than or equal to 50% and less than 70%; 4: growth control rate is greater than or equal to 30% and less than 50%; growth control rate is greater than or equal to 20% and less than 30%; growth control rate is greater than or equal to 10% and less than 20%; growth control rate is less than 10%; 0: no effect; conditions: 30 g a.i./ha

Compound	Pre-emergence activity level (growth control rate) on Amaranthus retroflexus [1]	Pre-emergence activity level (growth control rate) on Veronica [1]	Pre-emergence plant damage level (growth control rate) on Corn (major crops)	Pre-emergence plant damage level (growth control rate) on Cotton (major crops)	Pre-emergence plant damage level (growth control rate) on Soybean (major crops)	Pre-emergence activity level (growth control rate) on Descurainia sophia [1]	Pre-emergence activity level (growth control rate) on Digitaria sanguinalis [1]	Pre-emergence activity level (growth control rate) on Setaria viridis [1]	Pre-emergence activity level (growth control rate) on Solanum nigrum [1]
Cc1ccc(-n2cnc(C(F)(F)F)n2)nc1Oc1cccc(F)c1 [Compound 39]	9	9	0	0	0	–	–	–	–
Cc1ccc(-n2cnc(C(F)(F)F)n2)nc1Oc1cccc(Cl)c1 [Compound 40]	9	9	0	0	0	9	7 (growth control rate is greater than or equal to 80% and less than 90%)	7 (growth control rate is greater than or equal to 80% and less than 90%)	7 (growth control rate is greater than or equal to 80% and less than 90%)
Cc1ccc(-n2cnc(C(F)(F)F)n2)nc1Oc1cccc(OC(F)F)c1 [Compound 43]	9	9	0	0	0	9	9	8 (growth control rate is greater than or equal to 90% and less than 100%)	7 (growth control rate is greater than or equal to 80% and less than 90%)
Cc1ccc(-n2cnc(C(F)(F)C(F)(F)F)n2)nc1Oc1cccc(OC(F)(F)F)c1 [Compound 65]	–	–	0	0	0	9	9	9	–
Cc1ccc(-n2cnc(C(F)(F)F)n2)nc1Oc1ccc(F)c(OC(F)(F)F)c1 [Compound 66]	9	9	0	0	0	9	9	9	9
COc1cc(Oc2cccc(OC(F)(F)F)c2)nc(-n2cnc(C(F)F)n2)c1 [Compound 67]	9	9	0	0	0	9	7 (growth control rate is greater than or equal to 80% and less than 90%)	7 (growth control rate is greater than or equal to 80% and less than 90%)	–
COCc1cc(Oc2cccc(C(F)(F)F)c2)nc(-n2cnc(C(F)(F)F)n2)c1 [Compound 68]	9	8 (growth control rate is greater than or equal to 90% and less than 100%)	0	0	0	8 (growth control rate is greater than or equal to 90% and less than 100%)	7 (growth control rate is greater than or equal to 80% and less than 90%)	8 (growth control rate is greater than or equal to 90% and less than 100%)	7 (growth control rate is greater than or equal to 80% and less than 90%)
CCc1ccc(-n2cnc(C(F)(F)F)n2)nc1Oc1cccc(C(C)(F)F)c1 [Compound 69]	9	9	0	0	0	9	9	9	9
Cc1ccc(-n2cnc(C(F)F)n2)nc1Oc1ccc(F)c(C(F)(F)F)c1 [Compound 70]	9	9	0	0	0	9	9	9	9
CCc1ccc(-n2cnc(C(F)(F)F)n2)nc1Oc1cccc(OC(F)(F)F)c1 [Compound 71]	9	9	0	0	0	9	9	9	9
CCc1ccc(-n2cnc(C(F)F)n2)nc1Oc1cccc(C(F)(F)F)c1 [Compound 72]	9	9	0	0	0	9	7 (growth control rate is greater than or equal to 80% and less than 90%)	8 (growth control rate is greater than or equal to 90% and less than 100%)	9
CCc1ccc(-n2cnc(C(F)F)n2)nc1Oc1cccc(OC(F)(F)F)c1 [Compound 73]	9	9	0	0	0	9	8 (growth control rate is greater than or equal to 90% and less than 100%)	8 (growth control rate is greater than or equal to 90% and less than 100%)	9
